Source: PubChem BioAssay (NCI)
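Growth conditions: 96-well plates. Treatment: test compound, 48 hours, 5 concentrations. Analysis: linear interpolation between bracketing concentrations; unreached endpoints set to highest concentration. GI50: concentration for 50% inhibition of growth. At the TGI there is no net growth.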 *1 amine or outer side, *2 acyl side, *3 side chain or, on linkers, in order; H or OH if unused. Where a SMILES comes first, the peptide text is derived from it. Bridges are numbered along the chain shown (N, C = ends). Roman numbers before positions name the chains, in order. [ ]: non-standard residue; d: D form. Actinocin(9to1) = Cc1c2oc3c(C)ccc(C(=O)[*:1])c3nc-2c(C(=O)[*:2])c(N)c1=O; NMeF = CN[CH](Cc1ccccc1)C(=O)O; Sar = CNCC(=O)O

Tests used:
Experiment in all cases: NCI anticancer screen, dose series, 48 h
LXFL 529 NSCLC = test system: LXFL 529 NSCLC
DMS 114 small cell lung = test system: DMS 114 small cell lung
DMS 273 small cell lung = test system: DMS 273 small cell lung
SNB-78 CNS = test system: SNB-78 CNS
XF 498 CNS = test system: XF 498 CNS
M19-MEL melanoma = test system: M19-MEL melanoma
RXF-631 renal = test system: RXF-631 renal
KM20L2 colon = test system: KM20L2 colon
MDA-N = test system: MDA-N
SN12K1 renal = test system: SN12K1 renal

Row | Compound | TGI (LXFL 529 NSCLC) | TGI (DMS 114 small cell lung) | TGI (DMS 273 small cell lung) | TGI (SNB-78 CNS) | TGI (XF 498 CNS) | TGI (M19-MEL melanoma) | TGI (RXF-631 renal) | TGI (KM20L2 colon) | also measured
1 | CN(C)C(=O)Oc1c(-c2ccccc2)c(=O)n2c3ccccc3n3c(=O)n(C)c(=O)c1c23 | > 100 µM | > 100 µM | > 100 µM | > 100 µM | > 100 µM | > 100 µM | > 100 µM | – | –
2 | O=C(CCC(=O)C1CCC/C1=N/O)Nc1ccc(Cl)cc1 (stereo not drawn) | > 100 µM | – | > 100 µM | > 100 µM | > 100 µM | > 100 µM | > 100 µM | > 100 µM | –
3 | Cc1coc2c1C(OC(=O)C(C)C)C1(C)C(C)CCC(O)C1C2=O (stereo not drawn) | – | – | – | – | – | – | – | – | TGI (MDA-N): > 100 µM
4 | Cc1c2oc3c(C)ccc(C(=O)NC4C(=O)NC(C(C)C)C(=O)N5CCCC5C(=O)N(C)CC(=O)N(C)C(Cc5ccccc5)C(=O)OC4C)c3nc-2c(C(=O)NC2C(=O)NC(C(C)C)C(=O)N3CCCC3C(=O)N(C)CC(=O)N(C)C(Cc3ccccc3)C(=O)OC2C)c(N)c1=O (stereo not drawn) (I: TVP[Sar][NMeF] / II: TVP[Sar][NMeF]; ester I:1-I:C, II:1-II:C; linker I:N-II:N via Actinocin(9to1); configuration not given here) | – | – | – | – | – | – | – | – | GI50 (MDA-N): 0.00491 µM; TGI (MDA-N): 0.0564 µM
5 | CC(=O)N/C(=C\c1ccc(Cc2nc3c([nH]2)C(=O)c2ccccc2C3=O)cc1)c1nc2c([nH]1)C(=O)c1ccccc1C2=O | > 100 µM | > 100 µM | – | – | – | > 100 µM | – | > 100 µM | –
6 | COc1ccccc1C(=O)N(C)c1ccc(Cl)c(C(=O)OC(C)C)c1 | – | – | – | – | – | – | – | – | TGI (MDA-N): > 100 µM
7 | CC(=O)[O-].O=C([CH-]C(=O)c1ccccc1)c1ccccc1.O=C([CH-]C(=O)c1ccccc1)c1ccccc1.[Sm+3] | – | – | – | – | – | – | – | 36.5 µM | GI50 (KM20L2 colon): 7.33 µM
8 | Cn1cccc1/C=C/c1cc(Br)c(/C=C/c2cccn2C)cc1Br | 25 µM | 35.2 µM | 38.3 µM | – | – | 53.7 µM | 49.4 µM | 58.4 µM | –
9 | O=C(NC(=O)c1ccccc1[N+](=O)[O-])Nc1ccc(Oc2ncc(Cl)cn2)c(C(F)(F)F)c1 | > 43.9 µM | – | 0.669 µM | > 100 µM | 1.62 µM | > 100 µM | – | < 0.0231 µM | –
10 | O=NN(CCCl)C(=O)NC1CCC(CC2CCC(NC(=O)N(CCCl)N=O)CC2)CC1 (stereo not drawn) | > 100 µM | > 55.1 µM | 85.5 µM | > 87.3 µM | 19.8 µM | > 100 µM | > 100 µM | > 100 µM | TGI (SN12K1 renal): 34.2 µM
11 | N#CCC(=O)N1CCCCCCC1 | > 100 µM | 91.7 µM | > 100 µM | > 100 µM | – | – | – | > 100 µM | –
12 | C=CC1=C(C)C2=NC1=CC1=NC(=C(CC)/C1=C\O)C=C1N=C3C(=C1C)C(=O)[C@H](C(=O)OC)C3=C1NC(=C2)[C@@H](C)[C@@H]1CCC(=O)O | – | – | – | – | – | – | – | – | TGI (MDA-N): > 100 µM
13 | CC(C)=CC(=O)Cc1nc2ccc([N+](=O)[O-])cc2[nH]c1=O | > 100 µM | > 100 µM | > 100 µM | > 100 µM | > 100 µM | > 100 µM | – | > 100 µM | –
14 | O=C(CC/C(CC(=O)c1ccc(Br)cc1)=N\O)Nc1ccc(Cl)c(Cl)c1 | > 100 µM | > 100 µM | > 100 µM | > 100 µM | – | > 100 µM | – | > 100 µM | –
15 | CCC[CH2][Sn]1([CH2]CCC)[O]CC(C)[O]1 (stereo not drawn) | 1.35 µM | 2.49 µM | 2.66 µM | 0.909 µM | 2.33 µM | 2.23 µM | – | 6.86 µM | GI50 (LXFL 529 NSCLC): 0.149 µM; GI50 (KM20L2 colon): 2.53 µM; GI50 (DMS 114 small cell lung): 1.11 µM; GI50 (DMS 273 small cell lung): 1.26 µM; GI50 (SNB-78 CNS): 0.301 µM; GI50 (XF 498 CNS): 0.99 µM; GI50 (M19-MEL melanoma): 0.803 µM
16 | Cc1ccc(C(=O)CC2=Nc3nnc(CCCCCCCc4nnc5n4C(=O)C(CC(=O)c4ccc(C)cc4)=N5)n3C2=O)cc1 | > 100 µM | > 100 µM | – | – | > 100 µM | > 100 µM | > 100 µM | > 100 µM | –
17 | O=[N+]([O-])c1cccc2nccc(NCCCO)c12 | – | – | – | – | – | – | – | – | TGI (MDA-N): 22.2 µM
18 | O=C(O)Cn1cc([N+](=O)[O-])c(=O)c2ccccc21 | – | – | – | – | – | – | – | – | TGI (MDA-N): > 100 µM
19 | CC(=O)[CH-]C(C)=O.CC(=O)[CH-]C(C)=O.CC[O-].CC[O-].[Ti+4] | > 100 µM | > 100 µM | – | – | – | – | – | – | GI50 (LXFL 529 NSCLC): > 100 µM; GI50 (DMS 114 small cell lung): > 100 µM
20 | Cn1c(=O)c2/c(n(C)c1=O)=N\C=c1\c(=O)n(C)c(=O)n(C)\c1=N\C=2 | > 100 µM | > 100 µM | – | > 100 µM | – | > 100 µM | > 100 µM | > 100 µM | –
21 | Cc1cccc2c(O)cc(=O)oc12 | > 100 µM | > 100 µM | – | > 100 µM | > 100 µM | > 100 µM | – | > 100 µM | –
22 | O=[N+]([O-])c1ccc(C=NC23CC4CC(CC(C4)C2)C3)cc1 | > 100 µM | > 100 µM | > 100 µM | > 100 µM | > 100 µM | > 100 µM | > 100 µM | > 100 µM | –
23 | CN1C/C(=C\C=C\c2ccccc2)C(=O)/C(=C/C=C/c2ccccc2)C1 | > 100 µM | > 100 µM | > 100 µM | > 100 µM | > 100 µM | > 100 µM | > 100 µM | > 100 µM | –
